Experimental data reported in US11053205B2, “Phenazine derivatives as antimicrobial agents” (University of Florida Research Foundation, Incorporated, priority 2017, dated 2021).
Converted amounts (≈) assume the structure as drawn. Where two headings read alike, the source gives them in different places. Marks after values point to notes of the source that are not given here.

Experiments:
MRSA BAA-1707 [1] = assay: MIC, broth microdilution (CLSI); details: 16 to 18 hours at 37° C.; 0.10 = lowest concentration tested
MRSE 35984 = assay: MIC, broth microdilution (CLSI); details: 16 to 18 hours at 37° C.
MRSE 35984 biofilms [2] = assay: Live/Dead staining of biofilms; type: cell-based, Staphylococcus epidermidis; details: 0.1, 5, and 10 μM, 24 hours
Description: (§1) A mid-log culture of MRSE 35894 was diluted 1:1,000-fold and 500 μL was transferred to each compartment of a 4 compartment CELLview dish (Greiner Bio-One 627871). The dish was then incubated for 24 hours at 37° C. After this time, the cultures were removed and the plate was washed with 0.9% saline. The dish was then treated with the compounds in fresh media at various concentrations. DMSO was used as the negative control in this assay. The dish was incubated with the compound for 24 hours at 37° C. After this time, the cultures were removed and the dish was washed with 0.9% saline for 2 minutes. Saline was then removed and 500 μL of the stain (Live/Dead BacLight Viability Kit, Invitrogen) were added for 15 minutes and left in the dark. After this time, the stain was removed and the dish was washed twice with 0.9% saline. Then the dish was fixed with 500 μL 4% paraformaldehyde in PBS for 30 minutes. Images of remaining MRSE biofilms were then taken with a fluorescence microscope. All data were analyzed using Image J software from three independent experiments.
Following biofilm eradication investigations in CBD assays, lead HP 61A was tested against biofilms of MRSE 35984 in live/dead staining experiments (FIG. 30B). After a 24-hour biofilm establishment, HP 61A was added at 0.1, 5, and 10 μM then left to incubate against MRSE 35984 biofilms for an additional 24 hours at 37° C.

HeLa cells [3] = tested on: HeLa cells
VRE 700221 = assay: MIC, broth microdilution (CLSI); details: for VRE 700221 MIC: 16 to 18 hours at 37° C.; for MIC: Enterococcus, VRE
MRSA BAA-1707 biofilms = assay: Calgary Biofilm Device (CBD) assay, MBC/MBEC; details: for MRSA BAA-1707 MBEC: biofilm eradication
VRE 700221 biofilms = assay: Calgary Biofilm Device (CBD) assay, MBC/MBEC; details: for VRE 700221 MBEC: biofilm eradication
MRSA-1707 biofilms [4] = assay: CBD pulse experiments (two sequential 24 hour treatments); type: cell-based, Staphylococcus aureus; details: two sequential 24 hour compound treatments
MRSA BAA-1707 [5] = assay: Macromolecular synthesis inhibition assay; type: cell-based, Staphylococcus aureus
Description: Macromolecular synthesis experiments were carried out in methicillin-resistant Staphylococcus aureus BAA-1707. An overnight culture (100 μL) of S. aureus BAA-1707 was sub-cultured into 10 mL of fresh TSBG media, which was allowed to grow to exponential phase (OD600=0.2−0.3) before transferring 500 μL to each well in a 24 well-plate. The test compounds and vehicle control (DMSO) were added to achieve the desired concentrations relative to their MIC values against S. aureus BAA-1707. Treated cultures were then incubated at 37° C. for 30 minutes before radioactive precursors for DNA ([^3H] thymidine (0.5 μCi)), RNA ([^3H] uridine (0.5 μCi)) and protein ([^3H] leucine (1 μCi)) were added. […] DMSO served as the negative control. DNA and RNA radiolabeled cultures were then incubated in 37° C. for 15 minutes before being stopped by adding 60 μL of cold 5% trichloroacetic acid (TCA). The protein synthesis experiment was stopped after 40 minutes by adding 60 μL cold TCA. These mixtures were then incubated at 2° C. for at least 30 minutes before the contents of the plates were transferred onto glass microfiber filters (24 mm) and washed 5 times with 1 mL of 5% TCA. The filters are allowed to dry overnight before 3.5 mL of the scintillation fluid was added to the scintillation vials containing the filters and the radiation counts were measured using liquid scintillation LS 6500.
For these experiments, MRSA-1707 cultures were treated with [^3H]-thymidine (DNA biosynthesis), [^3H]-uridine (RNA biosynthesis) and [^3H]-leucine (protein biosynthesis) in the presence of HP 1 and antibiotic controls (4-16×MIC).

[6] = tested on: M. tuberculosis H37Ra (ATCC 25177); assay: MIC assay for Mycobacterium tuberculosis; type: cell-based; details: Mycobacterium tuberculosis, 168 h; seven days at 37° C.; read-out: MtB H37Ra MIC
Description: (§2) The culture was then diluted with fresh medium until an OD600 of 0.01 was reached. […] The final DMSO concentration was maintained at 0.5%. […] Three rows were reserved for each compound. […] OD600 absorbance was recorded using SPECTRAMAX M5 (Molecular Devices). Data obtained from three independent experiments were analyzed using Excel.
as §2, with “SpectraMax” for “SPECTRAMAX”

human red blood cells [7] = details: human, 1 h, 200 μM, pH 7.2
[8] = LDH release assay for HeLa cytotoxicity; details: human, HeLa cells
MRSA-1 = assay: MIC, broth microdilution (CLSI); details: Staphylococcus aureus, MRSA, read-out: MRSA-1 MIC
MRSA-1707 biofilms [9] = assay: Live/Dead staining of biofilms; type: cell-based, Staphylococcus aureus; details: 0.1, 1 and 5 μM, 24 hours
Description: as §1, with “To support the CBD assay findings, LIVE/DEAD experiments were performed with potent Compound 27 (FIG. 7). A mid-log” for “A mid-log”, “culture of MRSA-2 was diluted” for “culture of MRSE 35894 was diluted”, “4 compartment […] dish (Greiner” for “4 compartment CELLview dish (Greiner”, “stain was removed, and the” for “stain was removed and the”, “of remaining MRSA-2 biofilms were” for “of remaining MRSE biofilms were”, “Image J software.” for “Image J software from three independent experiments.”
HP 1-17 was tested against MRSA-1707 biofilms in live/dead staining experiments. […] After this time, images of the treated and untreated MRSA-1707 biofilms were obtained using fluorescence microscopy (FIG. 20).

UV-Vis metal(II) binding = type: physicochemical; details: kinetics of UV-Vis experiments
Description: Spectral scanning was performed from 200 to 800 nm in 2 nm increments.

[10] = tested on: MRSA, MRSE and VRE biofilms; assay: CBD assays against MRSA, MRSE, and VRE biofilms (all strains); details: strains not given
MRSA BAA-1707 [11] = assay: Metal(II)-cation co-treatment MIC assay; type: cell-based; details: Staphylococcus aureus; copper(II) at 200 μM; read-out: MIC w/ Cu2+
HeLa cells [12] = assay: LDH release assay for HeLa cytotoxicity
S. epi 12228 = assay: MIC, broth microdilution (CLSI); details: Staphylococcus epidermidis, 12228, read-out: S. epi 12228 MIC
human red blood cells [13] = assay: Hemolysis assay with red blood cells; details: 1 hour at 37° C.
MRSA-2 biofilms = assay: Calgary Biofilm Device (CBD) assay, MBC/MBEC
MRSE 35984 biofilms [14] = assay: Calgary Biofilm Device (CBD) assay, MBC/MBEC; details: Staphylococcus epidermidis, MRSE, read-out: MRSE 35984 MBC
MRSA BAA-44 biofilms = assay: Calgary Biofilm Device (CBD) assay, MBC/MBEC; details: biofilm eradication

SMILES: Oc1c(Br)cc(Br)c2nc3cc(Cl)ccc3nc12 [61A]
- MRSA BAA-1707 MIC (MRSA BAA-1707 [1]): 0.038 µM
- MRSE 35984 MIC (MRSE 35984): 0.1 µM
- biofilm eradication and clearance (live/dead staining) (MRSE 35984 biofilms [2]): highly potent eradication and clearance of MRSE 35984 biofilms
- IC50 (HeLa cells [3]): > 100 µM
- VRE 700221 MIC (VRE 700221): 0.39 µM
- MRSA BAA-1707 MBEC (MRSA BAA-1707 biofilms; CBD): 4.69 µM

SMILES: CCCCCCCCCCCCCCCC[N+](C)(C)Cc1ccccc1.[Cl-] [BAC-16, reference compound]
- MRSA BAA-1707 MIC (MRSA BAA-1707 [1]): 1.56 µM
- MRSE 35984 MIC (MRSE 35984): 1.56 µM
- VRE 700221 MBEC (VRE 700221 biofilms; CBD): 3.0 µM
- VRE 700221 MBC (VRE 700221 biofilms; CBD, planktonic killing): 5.9 µM
- VRE 700221 MIC (VRE 700221): 3.13 µM
- MRSA BAA-1707 MBEC (MRSA BAA-1707 biofilms; CBD): 15.6 µM
- MRSA BAA-1707 MBC (MRSA BAA-1707 biofilms; CBD, planktonic killing): 31.3 µM
- MBEC (pulse treatment) (MRSA-1707 biofilms [4]): 25 µM

SMILES: Oc1c(Br)cc(Br)c2nc3ccccc3nc12 [HP 1, 2,4-dibromophenazin-1-ol]
- RNA biosynthesis inhibition ([3H]-uridine) (MRSA BAA-1707 [5]; at 4×MIC): inhibits both RNA and protein biosynthesis
- protein biosynthesis inhibition ([3H]-leucine) (MRSA BAA-1707 [5]; at 4×MIC): inhibits both RNA and protein biosynthesis
- DNA biosynthesis inhibition ([3H]-thymidine) (MRSA BAA-1707 [5]; at 8×MIC): does not inhibit DNA biosynthesis
- MIC [6]: 25 µM (≈ 8.85 µg/mL)
- Hemolysis at 200 μM (human red blood cells [7]): ≤1%
- IC50 at 24 h [8]: 100 µM

SMILES: Cc1cccc2nc3c(O)c(Br)cc(Br)c3nc12 [HP 1-17]
- MIC [6]: 25 µM (≈ 9.2 µg/mL)
- Hemolysis at 200 μM (human red blood cells [7]): 6.7%
- MIC (MRSA-1): 0.1 µM (≈ 0.0368 µg/mL)
- biofilm eradication and clearance (live/dead staining) (MRSA-1707 biofilms [9]): potent biofilm eradication and clearance response
- rate of copper(II) chelation (UV-Vis metal(II) binding): faster rate than HP 1

SMILES: CCc1cccc2nc3c(O)c(Br)cc(Br)c3nc12 [HP 1-18]
- MRSA BAA-1707 MIC (MRSA BAA-1707 [1]): 0.10^c μM
- MRSE 35984 MIC (MRSE 35984): 0.10^c μM
- MIC [6]: 25 µM (≈ 9.55 µg/mL)
- MBEC [10]: 0.59 to 2.35 µM
- Hemolysis at 200 μM (human red blood cells [7]): 1.7%
- MIC (VRE 700221; read-out: VRE 700221 MIC, 16 to 18 hours at 37° C.): 0.15 to 1.56 µM (≈ 0.0573 to 0.596 µg/mL)

SMILES: Cc1ccc2nc3c(Br)cc(Br)c(O)c3nc2c1 [HP 1-20]
- melting point: 213 to 215 °C

SMILES: Oc1c(Br)cc(Br)c2nc3c(Cl)cccc3nc12 [HP 1-21]
- MIC [6]: 50 µM (≈ 19.4 µg/mL)
- Hemolysis at 200 μM (human red blood cells [7]): ≤1%
- MIC (MRSA BAA-1707 [11]): 6.25 µM
- rate of copper(II) chelation (UV-Vis metal(II) binding): faster rate than HP 1

SMILES: Oc1c(Br)cc(Br)c2nc3c(Br)cccc3nc12 [HP 1-23]
- MIC [6]: 25 µM (≈ 10.8 µg/mL)
- Hemolysis at 200 μM (human red blood cells [7]): 5.1%
- selectivity index (HeLa IC50 to MRSA BAA-1707 MIC) (HeLa cells [12]): > 2,000 fold
- IC50 at 24 h [8]: > 100 µM

SMILES: COCCOCCOCCOCCOC(=O)Oc1c(Br)cc(Br)c2nc3c(C)cccc3nc12 [HP 1-25]
- MIC [6]: 12.5 µM (≈ 7.53 µg/mL)
- HeLa cell cytotoxicity at 100 μM (HeLa cells [3]): no HeLa cell cytotoxicity
- MIC (S. epi 12228): 0.1 µM (≈ 0.0602 µg/mL)
- Hemolysis at 200 μM (human red blood cells [7]): ≤1%

SMILES: CN[C@H](CC(C)C)C(=O)N[C@H]1C(=O)N[C@@H](CC(N)=O)C(=O)N[C@H]2C(=O)N[C@H]3C(=O)N[C@H](C(=O)N[C@H](C(=O)O)c4cc(O)cc(O)c4-c4cc3ccc4O)[C@H](O)c3ccc(c(Cl)c3)Oc3cc2cc(c3O[C@@H]2O[C@H](CO)[C@@H](O)[C@H](O)[C@H]2O[C@H]2C[C@](C)(N)[C@H](O)[C@H](C)O2)Oc2ccc(cc2Cl)[C@H]1O [vancomycin, reference compound]
- Hemolysis at 200 μM (human red blood cells [13]): ≤1%
- MRSA-2 MBEC (MRSA-2 biofilms; CBD, biofilm eradication): > 2000 µM
- MBC (MRSA-2 biofilms; Staphylococcus aureus, MRSA, read-out: MRSA-2 MBC): 3 µM (≈ 4.35 µg/mL)
- VRE 700221 MBEC (VRE 700221 biofilms; CBD): 150 µM
- MBC (VRE 700221 biofilms; Enterococcus, VRE, read-out: VRE 700221 MBC): > 200 µM
- MIC (S. epi 12228): 1.17 µM (≈ 1.7 µg/mL)
- MBC (MRSE 35984 biofilms [14]): 3 µM (≈ 4.35 µg/mL)
- MRSA BAA-44 MBEC (MRSA BAA-44 biofilms): > 2000 µM
- MIC (VRE 700221; read-out: VRE 700221 MIC): > 100 µM
- MBC (MRSA BAA-1707 biofilms; Staphylococcus aureus, read-out: MRSA BAA-1707 MBC): 3.9 µM (≈ 5.65 µg/mL)
- biofilm eradication activities against MRSA biofilms (MRSA BAA-1707 biofilms; at 2,000 μM (highest concentration tested)): no biofilm eradication activities
